14 compounds from US9187471B2, “Pyrido [4,3-b] indole and pyrido [3,4-b] indole derivatives and methods of use” (Medivation Technologies, Inc., priority 2010, dated 2015) can be followed below.

Molecules are shown by their SMILES.

Assay [1] has as its target T1, human recombinant adrenergic α2C receptor (Homo sapiens, UniProt P18825).
T1 construct: expressed in transfected cells; host or cells: insect Sf9 cells
T1 sequence (P18825 1-462): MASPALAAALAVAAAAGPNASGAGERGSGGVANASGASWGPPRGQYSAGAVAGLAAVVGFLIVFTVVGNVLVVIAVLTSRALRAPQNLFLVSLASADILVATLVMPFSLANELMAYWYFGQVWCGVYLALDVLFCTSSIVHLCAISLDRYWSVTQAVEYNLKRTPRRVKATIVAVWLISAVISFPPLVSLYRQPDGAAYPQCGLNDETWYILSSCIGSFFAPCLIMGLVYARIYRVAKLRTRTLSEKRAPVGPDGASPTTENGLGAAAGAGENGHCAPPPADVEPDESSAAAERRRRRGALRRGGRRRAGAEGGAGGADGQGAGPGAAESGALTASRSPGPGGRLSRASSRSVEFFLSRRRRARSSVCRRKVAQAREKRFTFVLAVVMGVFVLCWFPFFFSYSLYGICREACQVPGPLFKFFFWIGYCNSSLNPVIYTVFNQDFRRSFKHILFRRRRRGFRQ
Kind of assay: Adrenergic α2C radioligand binding ([3H]MK-912). The note with it: read-out: Adrenergic (0.1 μM) a2C, percent inhibition of specific binding; compound at 0.1 μM; 1 nM [3H]MK-912. In short, it runs like this:
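Membranes from Sf9 cells expressing the human receptor, in 50 mM Tris-HCl pH 7.4 with 12.5 mM MgCl2 and 2 mM EDTA, incubated with compound and 1 nM [3H]MK-912 for 60 min at 25 °C. Non-specific binding defined with 10 μM WB-4101. Filter-bound radioactivity counted; percent inhibition of specific binding reported.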

The target in assay [2] is T2, human recombinant dopamine D2L receptor (Homo sapiens, UniProt P14416).
T2 construct: expressed in transfected cells; host or cells: CHO
As to the kind of experiment: Dopamine D2L radioligand binding ([3H]Spiperone). As to conditions: 0.16 nM [3H]Spiperone; for inhibition at 0.1 µM: read-out: Dopamine D2L (0.1 μM), percent inhibition of specific binding, compound at 0.1 μM; for inhibition at 1 µM: read-out: Dopamine D2L (1 μM), percent inhibition of specific binding, compound at 1 μM. How it is done: Non-specific binding was estimated in the presence of 10 μM Haloperidol. Receptor proteins were filtered and washed, the filters were then counted to determine [^3H]Spiperone specifically bound.

The target of assay [3] is T3, human recombinant serotonin (5-Hydroxytryptamine) 5-HT7 receptor (Homo sapiens, UniProt P34969).
T3 construct: expressed in transfected cells; host or cells: CHO
As to the kind of experiment: Serotonin 5-HT7 radioligand binding ([3H]LSD). As to conditions: compound at 0.1 μM; read-out: Inhibition of ligand binding, Serotonin 5-HT7 (percent inhibition of specific binding). The procedure: Lysergic acid diethylamide (LSD) for 120 min. at 25° C. […] Receptor proteins were filtered and washed, the filters were then counted to determine [^3H]LSD specifically bound.

T2 sequence (P14416 whole entry): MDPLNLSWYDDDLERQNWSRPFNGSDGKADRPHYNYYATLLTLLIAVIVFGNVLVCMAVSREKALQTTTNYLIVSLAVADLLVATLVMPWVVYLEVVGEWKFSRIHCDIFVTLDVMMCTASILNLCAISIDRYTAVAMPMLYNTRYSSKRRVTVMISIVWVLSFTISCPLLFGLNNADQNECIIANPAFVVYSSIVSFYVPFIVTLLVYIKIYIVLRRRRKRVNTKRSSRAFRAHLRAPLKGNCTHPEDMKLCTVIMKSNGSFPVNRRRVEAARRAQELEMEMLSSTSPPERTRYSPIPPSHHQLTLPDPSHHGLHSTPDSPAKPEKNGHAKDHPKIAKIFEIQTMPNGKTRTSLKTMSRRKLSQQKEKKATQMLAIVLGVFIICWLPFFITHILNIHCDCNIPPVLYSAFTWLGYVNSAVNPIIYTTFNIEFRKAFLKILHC
T3 sequence (P34969 whole entry): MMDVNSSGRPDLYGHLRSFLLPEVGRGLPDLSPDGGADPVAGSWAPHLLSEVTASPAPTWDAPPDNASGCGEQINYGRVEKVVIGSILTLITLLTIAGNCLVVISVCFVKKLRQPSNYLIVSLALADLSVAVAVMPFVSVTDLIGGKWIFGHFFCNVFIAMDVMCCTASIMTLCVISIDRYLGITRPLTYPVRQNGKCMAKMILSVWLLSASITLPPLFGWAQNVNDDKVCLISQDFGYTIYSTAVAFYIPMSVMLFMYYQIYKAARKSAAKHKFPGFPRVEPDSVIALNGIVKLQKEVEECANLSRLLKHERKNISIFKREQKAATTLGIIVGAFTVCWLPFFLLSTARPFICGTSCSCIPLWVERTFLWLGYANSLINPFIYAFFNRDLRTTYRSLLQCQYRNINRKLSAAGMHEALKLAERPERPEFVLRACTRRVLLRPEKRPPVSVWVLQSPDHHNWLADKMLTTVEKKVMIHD

What is called inhibition is the drop in the measured response relative to a control, in per cent. For `Cc1ccc2c(c1)c1c(n2-c2cscc2C(=O)N(C)C)CCN(C)C1` [Compound No. 152], the inhibition at 0.1 µM in assay [1] turned out to be 12%; in assay [2], 4%; in assay [3], 15%.

Consider `Cc1ccc2c(c1)c1c(n2-c2cscc2-c2ccc(F)nc2)CCN(C)C1` [Compound 35], for which the values for the inhibition at 0.1 µM in assay [1] and in assay [3] were 47% and 93%, respectively. The inhibition at 1 µM in assay [2] is 17%.

In the case of `Cc1ccc2c(c1)c1c(n2-c2ccc(-c3cccnc3)cn2)CCN(C)C1` [Compound No. 133, 5-(3,3′-bipyridin-6-yl)-2,8-dimethyl-2,3,4,5-tetrahydro-1H-pyrido[4,3-b]indole], the inhibition at 0.1 µM in assay [1] is 0%; in assay [3], 21%. Further, the inhibition at 1 µM in assay [2] came to 11%.

As to `Cc1ccc2c(c1)c1c(n2-c2cccc3ccncc23)CCN(C)C1` [Compound 58, 5-(isoquinolin-8-yl)-2,8-dimethyl-2,3,4,5-tetrahydro-1H-pyrido[4,3-b]indole], the inhibition at 0.1 µM was -1% in assay [1] and 69% in assay [3]. The inhibition at 1 µM in assay [2] came out at 11%.

On to `Cc1ccc2c(c1)c1c(n2-c2cccc(-c3ccc(C)nc3)c2)CCN(C)C1` [Compound 60, 2,8-dimethyl-5-(3-(6-methylpyridin-3-yl)phenyl)-2,3,4,5-tetrahydro-1H-pyrido[4,3-b]indole], for which the results for the inhibition at 0.1 µM in assay [1] and in assay [3] were 21% and 41%, respectively. Besides, the inhibition at 1 µM in assay [2] turned out to be 24%.

For the compound `Cc1ccc2c(c1)c1c(n2-c2cccc(-c3ccc(F)cc3)c2)CCN(C)C1` [Compound 61, 5-(4′-fluorobiphenyl-3-yl)-2,8-dimethyl-2,3,4,5-tetrahydro-1H-pyrido[4,3-b]indole], the inhibition at 0.1 µM is 8% in assay [1] and 48% in assay [3]. The inhibition at 1 µM in assay [2] was 36%.

Consider `Cc1csc(-c2ccc(-n3c4c(c5cc(C)ccc53)CN(C)CC4)nc2)c1` [Compound No. 144, 2,8-dimethyl-5-(5-(4-methylthiophen-2-yl)pyridin-2-yl)-2,3,4,5-tetrahydro-1H-pyrido[4,3-b]indole], for which the inhibition at 0.1 µM in assay [1] was 49%; in assay [3], 37%. Besides, in assay [2], the inhibition at 1 µM was 5%.

As to `Cc1ccc2c(c1)c1c(n2-c2ccccc2-c2ccnn2C)CCN(C)C1` [Compound 32], the inhibition at 0.1 µM came out at 20% in assay [1] and 55% in assay [3]. In assay [2], the inhibition at 1 µM turned out to be 10%.

For the compound `Cc1csc(-c2ccccc2-n2c3c(c4cc(C)ccc42)CN(C)CC3)c1` [Compound 36], the figures for the inhibition at 0.1 µM in assay [1] and in assay [3] were 67% and 51%, respectively. Further, the inhibition at 1 µM in assay [2] was 22%.

As to `CNC(=O)c1cc(-n2c3c(c4cc(C)ccc42)CN(C)CC3)cs1` [Compound No. 78], the values for the inhibition at 0.1 µM in assay [1] and in assay [3] were 3% and 22%, respectively. Further, the inhibition at 1 µM in assay [2] came out at 1%.

For `Cc1ccc2c(c1)c1c(n2-c2cscc2-c2cncc3ccccc23)CCN(C)C1` [Compound 34], the values for the inhibition at 0.1 µM in assay [1] and in assay [3] were 5% and 43%, respectively. For the same compound, in assay [2], the inhibition at 1 µM was determined as 31%.

With `Cc1ccc2c(c1)c1c(n2-c2ccc3nc(C)ccc3c2)CCN(C)C1` [Compound No. 157, 2,8-dimethyl-5-(2-methyl-quinolin-6-yl)-2,3,4,5-tetrahydro-1H-pyrido[4,3-b]indole], the inhibition at 0.1 µM in assay [1] was -1%; in assay [2], -6%; in assay [3] it was 16%.

With `Cc1ccc2c(c1)c1c(n2-c2cccc(-c3ccc(O)nc3)c2)CCN(C)C1` [Compound 52, 5-(3-(2,8-dimethyl-3,4-dihydro-1H-pyrido[4,3-b]indol-5(2H)-yl)phenyl)pyridin-2-ol], the inhibition at 0.1 µM in assay [1] is 2%; in assay [3], 14%. Moreover, the inhibition at 1 µM in assay [2] was determined as 21%.

In the case of `Cc1cc(C)c2c(c1)c1c(n2-c2ccc3ncccc3c2)CCN(C)C1` [Compound 48], the inhibition at 0.1 µM in assay [1] is -7%; in assay [3] it was 23%. In assay [2], the inhibition at 1 µM is 41%.
